Experimental data published in PubChem BioAssay (NCI).
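Protocol summary: plate cells (96-well), add compound at 5 concentrations, incubate 48 h, interpolate endpoints linearly. TGI marks complete inhibition of growth.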

Tests used:
Assay in all cases: DTP human tumour cell line panel, 48 h
SW-620 colon = test system: SW-620 colon
COLO 205 colon = test system: COLO 205 colon
MALME-3M melanoma = test system: MALME-3M melanoma
HCT-116 colon = test system: HCT-116 colon
CAKI-1 renal = test system: CAKI-1 renal
HCT-15 colon = test system: HCT-15 colon
MOLT-4 leukemia = test system: MOLT-4 leukemia
IGROV1 ovarian = test system: IGROV1 ovarian
NCI-H460 lung = test system: NCI-H460 lung
OVCAR-5 ovarian = test system: OVCAR-5 ovarian
TK-10 renal = test system: TK-10 renal
SR leukemia = test system: SR leukemia
LOX IMVI melanoma = test system: LOX IMVI melanoma
MDA-N = test system: MDA-N
OVCAR-8 ovarian = test system: OVCAR-8 ovarian
MCF7 breast = test system: MCF7 breast
HOP-62 NSCLC = test system: HOP-62 NSCLC
SN12C renal = test system: SN12C renal
RPMI-8226 leukemia = test system: RPMI-8226 leukemia
HL-60(TB) leukemia = test system: HL-60(TB) leukemia
A498 renal = test system: A498 renal
SF-539 CNS = test system: SF-539 CNS
KM12 colon = test system: KM12 colon
MDA-MB-435 = test system: MDA-MB-435
UACC-257 melanoma = test system: UACC-257 melanoma
SK-OV-3 ovarian = test system: SK-OV-3 ovarian
HT29 colon = test system: HT29 colon
NCI-H226 lung = test system: NCI-H226 lung
SK-MEL-28 melanoma = test system: SK-MEL-28 melanoma
NCI/ADR-RES ovarian = test system: NCI/ADR-RES ovarian
SF-295 CNS = test system: SF-295 CNS
RXF 393 renal = test system: RXF 393 renal
786-0 renal = test system: 786-0 renal
SNB-75 CNS = test system: SNB-75 CNS
UACC-62 melanoma = test system: UACC-62 melanoma
NCI-H522 lung = test system: NCI-H522 lung
DU-145 prostate = test system: DU-145 prostate
ACHN renal = test system: ACHN renal
SK-MEL-2 melanoma = test system: SK-MEL-2 melanoma
A549 NSCLC = test system: A549 NSCLC
EKVX NSCLC = test system: EKVX NSCLC
SNB-19 CNS = test system: SNB-19 CNS
UO-31 renal = test system: UO-31 renal
HOP-92 NSCLC = test system: HOP-92 NSCLC
NCI-H23 lung = test system: NCI-H23 lung
SF-268 CNS = test system: SF-268 CNS
PC-3 prostate = test system: PC-3 prostate
T-47D breast = test system: T-47D breast
MDA-MB-231 breast = test system: MDA-MB-231 breast
M14 melanoma = test system: M14 melanoma
CCRF-CEM leukemia = test system: CCRF-CEM leukemia
BT-549 breast = test system: BT-549 breast
HCC-2998 colon = test system: HCC-2998 colon
OVCAR-4 ovarian = test system: OVCAR-4 ovarian
U251 CNS = test system: U251 CNS
OVCAR-3 ovarian = test system: OVCAR-3 ovarian
K-562 leukemia = test system: K-562 leukemia
HS 578T breast = test system: HS 578T breast
SK-MEL-5 melanoma = test system: SK-MEL-5 melanoma

CCOP(=O)(OCC)C(Nc1ccc(F)cc1)c1ccccc1 (stereo not given)
TGI (SW-620 colon): > 100 µM | TGI (COLO 205 colon): > 100 µM | TGI (MALME-3M melanoma): > 100 µM | TGI (HCT-116 colon): > 100 µM | TGI (CAKI-1 renal): > 100 µM | TGI (HCT-15 colon): > 100 µM | TGI (MOLT-4 leukemia): > 100 µM | TGI (IGROV1 ovarian): > 100 µM | TGI (NCI-H460 lung): > 100 µM | TGI (OVCAR-5 ovarian): > 100 µM | TGI (TK-10 renal): > 100 µM | TGI (SR leukemia): > 100 µM | TGI (LOX IMVI melanoma): > 100 µM | TGI (MDA-N): > 100 µM | TGI (OVCAR-8 ovarian): > 100 µM | TGI (MCF7 breast): > 100 µM | TGI (HOP-62 NSCLC): > 100 µM | TGI (SN12C renal): > 100 µM | TGI (RPMI-8226 leukemia): > 100 µM | TGI (HL-60(TB) leukemia): > 100 µM | TGI (A498 renal): > 100 µM | TGI (SF-539 CNS): > 100 µM | TGI (KM12 colon): > 100 µM | TGI (MDA-MB-435): > 100 µM | TGI (UACC-257 melanoma): > 100 µM | TGI (SK-OV-3 ovarian): > 100 µM | TGI (HT29 colon): > 100 µM | TGI (NCI-H226 lung): > 100 µM | TGI (SK-MEL-28 melanoma): > 100 µM | TGI (NCI/ADR-RES ovarian): > 100 µM | TGI (SF-295 CNS): > 100 µM | TGI (RXF 393 renal): > 100 µM | TGI (786-0 renal): > 100 µM | TGI (SNB-75 CNS): > 100 µM | TGI (UACC-62 melanoma): > 100 µM | TGI (NCI-H522 lung): > 100 µM | TGI (DU-145 prostate): > 100 µM | TGI (ACHN renal): > 100 µM | TGI (SK-MEL-2 melanoma): > 100 µM | TGI (A549 NSCLC): > 100 µM | TGI (EKVX NSCLC): > 100 µM | TGI (SNB-19 CNS): > 100 µM | TGI (UO-31 renal): > 100 µM | TGI (HOP-92 NSCLC): > 100 µM | TGI (NCI-H23 lung): > 100 µM | TGI (SF-268 CNS): > 100 µM | TGI (PC-3 prostate): > 100 µM | TGI (T-47D breast): > 100 µM | TGI (MDA-MB-231 breast): > 100 µM | TGI (M14 melanoma): > 100 µM | TGI (CCRF-CEM leukemia): > 100 µM | TGI (BT-549 breast): > 100 µM | TGI (HCC-2998 colon): > 100 µM | TGI (OVCAR-4 ovarian): > 100 µM | TGI (U251 CNS): > 100 µM | TGI (OVCAR-3 ovarian): > 100 µM | TGI (K-562 leukemia): > 100 µM | TGI (HS 578T breast): > 100 µM | TGI (SK-MEL-5 melanoma): > 100 µM

Nc1ccc(-c2nc3ccccc3s2)cc1Br
TGI (SW-620 colon): > 100 µM | TGI (COLO 205 colon): > 100 µM | TGI (MALME-3M melanoma): > 100 µM | TGI (CAKI-1 renal): > 100 µM | TGI (HCT-15 colon): > 100 µM | TGI (MOLT-4 leukemia): > 100 µM | TGI (IGROV1 ovarian): > 100 µM | TGI (NCI-H460 lung): > 100 µM | TGI (OVCAR-5 ovarian): > 100 µM | TGI (TK-10 renal): > 100 µM | TGI (SR leukemia): > 100 µM | TGI (LOX IMVI melanoma): > 100 µM | TGI (MDA-N): > 100 µM | TGI (OVCAR-8 ovarian): > 100 µM | TGI (MCF7 breast): > 100 µM | TGI (HOP-62 NSCLC): > 68.3 µM | TGI (SN12C renal): > 100 µM | TGI (RPMI-8226 leukemia): > 100 µM | TGI (HL-60(TB) leukemia): > 100 µM | TGI (A498 renal): > 32.5 µM | TGI (SF-539 CNS): > 78.9 µM | TGI (KM12 colon): > 100 µM | TGI (MDA-MB-435): > 100 µM | TGI (UACC-257 melanoma): > 100 µM | TGI (SK-OV-3 ovarian): > 100 µM | TGI (HT29 colon): > 100 µM | TGI (NCI-H226 lung): > 100 µM | TGI (SK-MEL-28 melanoma): > 100 µM | TGI (NCI/ADR-RES ovarian): > 100 µM | TGI (SF-295 CNS): > 100 µM | TGI (RXF 393 renal): > 100 µM | TGI (786-0 renal): > 100 µM | TGI (SNB-75 CNS): > 86.4 µM | TGI (UACC-62 melanoma): > 100 µM | TGI (NCI-H522 lung): > 100 µM | TGI (DU-145 prostate): > 100 µM | TGI (ACHN renal): > 100 µM | TGI (SK-MEL-2 melanoma): > 100 µM | TGI (A549 NSCLC): > 100 µM | TGI (EKVX NSCLC): > 100 µM | TGI (SNB-19 CNS): > 100 µM | TGI (UO-31 renal): > 100 µM | TGI (HOP-92 NSCLC): > 100 µM | TGI (NCI-H23 lung): > 100 µM | TGI (SF-268 CNS): > 100 µM | TGI (PC-3 prostate): > 100 µM | TGI (T-47D breast): > 100 µM | TGI (MDA-MB-231 breast): > 100 µM | TGI (M14 melanoma): > 100 µM | TGI (CCRF-CEM leukemia): > 100 µM | TGI (BT-549 breast): > 100 µM | TGI (HCC-2998 colon): > 100 µM | TGI (OVCAR-4 ovarian): > 100 µM | TGI (U251 CNS): > 100 µM | TGI (OVCAR-3 ovarian): > 100 µM | TGI (K-562 leukemia): > 100 µM | TGI (HS 578T breast): > 100 µM | TGI (SK-MEL-5 melanoma): > 100 µM

CCCC1(N)CC(OC)OC(C)C1O (stereo not given)
TGI (SW-620 colon): > 100 µM | TGI (COLO 205 colon): > 100 µM | TGI (MALME-3M melanoma): > 100 µM | TGI (HCT-116 colon): > 100 µM | TGI (CAKI-1 renal): > 100 µM | TGI (HCT-15 colon): > 100 µM | TGI (MOLT-4 leukemia): > 100 µM | TGI (IGROV1 ovarian): > 100 µM | TGI (NCI-H460 lung): > 100 µM | TGI (OVCAR-5 ovarian): > 100 µM | TGI (TK-10 renal): > 100 µM | TGI (SR leukemia): > 100 µM | TGI (LOX IMVI melanoma): > 100 µM | TGI (MDA-N): > 100 µM | TGI (OVCAR-8 ovarian): > 100 µM | TGI (MCF7 breast): > 100 µM | TGI (HOP-62 NSCLC): > 100 µM | TGI (SN12C renal): > 100 µM | TGI (RPMI-8226 leukemia): > 100 µM | TGI (HL-60(TB) leukemia): > 100 µM | TGI (A498 renal): > 100 µM | TGI (SF-539 CNS): > 100 µM | TGI (KM12 colon): > 100 µM | TGI (MDA-MB-435): > 100 µM | TGI (UACC-257 melanoma): > 100 µM | TGI (SK-OV-3 ovarian): > 100 µM | TGI (HT29 colon): > 100 µM | TGI (NCI-H226 lung): > 100 µM | TGI (SK-MEL-28 melanoma): > 100 µM | TGI (NCI/ADR-RES ovarian): > 100 µM | TGI (SF-295 CNS): > 100 µM | TGI (RXF 393 renal): > 100 µM | TGI (786-0 renal): > 100 µM | TGI (SNB-75 CNS): > 100 µM | TGI (UACC-62 melanoma): > 100 µM | TGI (NCI-H522 lung): > 100 µM | TGI (DU-145 prostate): > 100 µM | TGI (ACHN renal): > 100 µM | TGI (SK-MEL-2 melanoma): > 100 µM | TGI (A549 NSCLC): > 100 µM | TGI (EKVX NSCLC): > 100 µM | TGI (SNB-19 CNS): > 100 µM | TGI (UO-31 renal): > 100 µM | TGI (HOP-92 NSCLC): > 100 µM | TGI (NCI-H23 lung): > 100 µM | TGI (SF-268 CNS): > 100 µM | TGI (PC-3 prostate): > 100 µM | TGI (T-47D breast): > 100 µM | TGI (MDA-MB-231 breast): > 100 µM | TGI (M14 melanoma): > 100 µM | TGI (CCRF-CEM leukemia): > 100 µM | TGI (BT-549 breast): > 100 µM | TGI (HCC-2998 colon): > 100 µM | TGI (U251 CNS): > 100 µM | TGI (OVCAR-3 ovarian): > 100 µM | TGI (K-562 leukemia): > 100 µM | TGI (HS 578T breast): > 100 µM | TGI (SK-MEL-5 melanoma): > 100 µM
